Results: a melting point compilation (Tetko et al.; mined from patent text by program, amines drawn as free bases though some values may be those of a salt)

Row | SMILES | melting point [°C]
1 | CC(C)(C)OC(=O)N1CCC(Oc2cncc(Cl)n2)CC1 | 86 to 87
2 | COC(=O)[C@@H](Cc1ccccc1)Oc1c(Br)cc(-c2c3ccccc3c(Br)c3sc(C)c(C)c23)cc1C1CCCC1 | 167 to 168
3 | CC(CO)C1CCC2=C3C=CC4C(C)(C)C(OC(=O)c5ccccc5)CCC4(C)C3CCC21C (stereo unspecified) | 218 to 220
4 | COc1cc(CNC(=O)c2nc3scc(COCc4ccc(C(=O)O)cc4)c3c(=O)[nH]2)ccn1 | 240 to 242
5 | c1cnc2ccc(Nc3nccc(-c4ccc(N5CCNCC5)nc4)n3)cc2c1 | 199 to 200
6 | COC(=O)c1cccc(-c2ccccc2OC2OC(C)C(O)C(O)C2O)c1 (stereo unspecified) | 137 to 140
7 | O=C(O)c1ccc(OC(=O)c2ccc(O)c(C34CC5CC(CC(C5)C3)C4)c2)cc1 | 269 to 271
8 | CC1=C(c2ccncc2)CCC(=O)N1 | 175 to 177
9 | CCCCCCCCCCOc1ccc(Cc2cnc(N)nc2N)cc1OC | 169
10 | Oc1cc(C2CC2)[nH]n1 | 213 to 215
11 | CCOC(=O)C(C)(C)Oc1ccc(-c2ccc(CC(=O)Nc3cc(Cl)ccc3OC)cc2)cc1 | < 20
12 | CCC(=O)Nc1cccc(-c2ccnc3c(C(=O)c4ccco4)cnn23)c1 | 185 to 186
13 | CCCn1cc(Cc2ccc(C(=O)NS(=O)(=O)c3ccccc3C)cc2OC)c2cc(CC3CCCN(C)C3=O)ccc21 (stereo unspecified) | 120 to 128
14 | CSC(SC)=C(Cl)c1cccc(C(=O)c2ccccc2)c1 | 94 to 96
15 | CCOC(=O)C(C#N)=Cc1cccc(C(F)(F)F)c1Cl | 50
16 | CC#CCn1nnc2cc3c(=O)n(C(C)Cn4nccn4)nnc3cc2c1=O (stereo unspecified) | 154 to 156
17 | CCOC(=O)Cn1c(-c2cc(Cl)ccn2)nc2cccnc21 | 99 to 101
18 | COc1cc(OCc2ccccc2)c(C23CC4CC(CC(C4)C2)C3)cc1Br | 124 to 126
19 | c1ccc(-c2cccc(-c3nc4c5ccccc5ccn4n3)c2)cc1 | 167 to 169
20 | CON=C[C@H]1NC(=O)[C@H]1NC(=O)OCc1ccccc1 | 170 to 171
21 | CC(C)Cn1cnc2c(N)nc3c(c21)CCNC3 | 220 to 223
22 | CCn1c(=O)c2[nH]c(/C=C/c3cccc(Oc4ccccc4)c3)nc2n(CC)c1=O | 241 to 243
23 | COC(=O)CCC(C)C1CCC2C3CC=C4CC(OC(C)=O)CCC4(C)C3CCC12C (stereo unspecified) | 152
24 | Cc1cc(F)ccc1-c1nc(NC(C)(C)CO)nc2c1ccc(=O)n2-c1c(F)cccc1F | 99 to 105
25 | COc1ccc(CCCCCCCSc2ccccc2)cc1 | 58 to 59
26 | OC1CCCc2ccc(-c3ccc4nc(-c5ccc(Cl)cc5)cn4c3)cc21 (stereo unspecified) | 232 to 234

Row | SMILES | melting point [°C]
27 | Cc1cccc2c1CC(n1ccnc1C(N)=O)C2=O (stereo unspecified) | 160
28 | CCCCNC(=O)NS(=O)(=O)c1ccccc1-c1ccno1 | 110 to 113
29 | Cc1nccn1CCCCC(=O)NCc1ccc(Cl)cc1 | 72 to 75
30 | O=C(O)C(=O)N1CCC(Cc2ccc(F)cc2)CC1 | 152 to 154
31 | Cc1ccnc2c1C(=O)c1cc([N+](=O)[O-])ccc1-2 | 225 to 227
32 | COc1cccc2cc3c(c(-c4ccc5c(c4)OCO5)c12)CNC3=O | 295 to 298
33 | C#C[C@]1(C)CCc2c(C)c(OCc3ccccc3)c(C)c(C)c2O1 | 88 to 90
34 | NC(=O)c1ccc2c(O)cncc2c1 | > 250
35 | O=C1CC2(CCCC2)C(O)C(=O)N1CCCCN1CCN(c2nsc3ccccc23)CC1 (stereo unspecified) | 151
36 | FC(F)(F)c1cc(Cc2ccc(Cl)c(C(F)(F)F)c2)ccc1Cl | 98 to 101
37 | O=[N+]([O-])c1ccccc1SC1SCC(O)C(O)C1O (stereo unspecified) | 185
38 | COc1ccc(OCCc2c[nH]cn2)cc1 | 178 to 181
39 | CSc1nc2ccnn2c2ncccc12 | 192
40 | CCCCCS(=O)(=O)NC(=O)/C=C/c1cc(OCCCC)nn1Cc1ccc(C(F)(F)F)cc1 | 159 to 160
41 | OC(CCNC1=NCCCN1)c1ccccc1 (stereo unspecified) | 130 to 135
42 | CCOC(=O)C1=C(C)NC(=S)N(C(=O)OC(C)C)C1c1cccc([N+](=O)[O-])c1 (stereo unspecified) | 150 to 152
43 | CC(=O)ON=C1C(=O)Nc2cc(Cl)cc(Cl)c2C1=O | 194 to 195
44 | CC(=O)Nc1ccc(C=Cc2cc(=O)cc(-c3ccccc3)o2)cc1 | 271 to 272
45 | C=C1CCC2C3CCc4cc(OC(C)=O)ccc4C3CCC12C (stereo unspecified) | 77 to 79
46 | COc1ccc(C(=O)Nc2ccc(N3CCCC3)cc2C(C)=O)cc1 | 174 to 175
47 | Cc1sc(-c2ccccc2)nc1COc1ccc(CCl)cn1 | 78 to 79
48 | CC(C)c1cc(-c2ccc(F)cc2)c(C=O)c(C(C)C)n1 | 72 to 75
49 | O=C(O)COc1cccc2c1OCc1sc(SCCC(c3ccccc3)c3ccccc3)nc1-2 | 112 to 114
50 | Cc1nccn1-c1ccc(COc2cccc(C3(C(N)=O)CCOCC3)c2)cc1 | 183 to 186
51 | CCNC(=O)CN(c1c(Cc2c(F)cccc2F)cccc1OC)S(=O)(=O)c1ccc(OC)c(OC)c1 | 180
52 | O=C(O)Cc1ccc(OCc2ccccc2)c(Cl)c1 | 121 to 123

Row | SMILES | melting point [°C]
53 | O=Cc1cc([N+](=O)[O-])ccc1OCCCc1ccccc1 | 72 to 73
54 | BrCCc1ccc2c(c1)CCO2 | 60 to 62
55 | CCCc1nc2c(N)nc3cc(OCCN4CCCS4(=O)=O)ccc3c2s1 | 127 to 130
56 | COc1cc(C(=O)c2nc(C(N)=O)c3ccccn23)ccc1N | 241
57 | Cn1cc(OS(C)(=O)=O)c(=O)c2ccc(Cl)cc21 | 157 to 158
58 | CCN(C(=O)c1ccc(CCSn2cnc3ccccc32)cc1)C1CCCCC1 | 114 to 115
59 | CCNC(=O)Nc1ccc(N(C)C)cc1C(=O)NCC1CCN(C(c2ccccc2)c2ccccc2)CC1 | 186 to 188
60 | CSc1ccc(C)cc1C(N)=S | 160
61 | Cc1cc(C)c2cccc(OCc3c(Cl)ccc(S(=O)(=O)N4CCC[C@H]4C(=O)NCCCNC(=O)Cc4ccc(C=NN)cc4)c3Cl)c2n1 | 184 to 188
62 | Cc1cc(Br)cnc1CCCCNC1=NS(=O)N=C1NCc1cccnc1 (stereo unspecified) | 179 to 180
63 | CS(=O)(=O)c1ccc(-c2oc3ccccc3c(=O)c2-c2ccccn2)cc1 | 203 to 204
64 | CN(C)c1ccc(S(=O)c2ccccc2)cc1[N+](=O)[O-] (stereo unspecified) | 125 to 126
65 | C[C@@H]1O[C@](/C=C/C2CC2)(C(F)(F)F)c2cc(F)ccc2NC1=O (relative stereo) | 180 to 182
66 | C[C@H](C1CCCCC1)N1C(=O)c2c(F)c(F)c(F)c(F)c2C1=O | 147 to 148
67 | CN1Cc2ccccc2P1(=O)c1ccccc1 (stereo unspecified) | 129 to 130
68 | O=C1N=c2cc(O)c(O)c(O)c2=NC1=O | > 350
69 | CN1CCN(Cc2cc(NC(=O)Nc3ccc(Oc4cc(Cl)ncn4)cc3)cc(C(F)(F)F)c2)CC1 | 291 to 292
70 | O=C(CF)NOC(=O)C(F)(F)F | 56 to 59
71 | CN1C(=O)[C@H](NC(=O)CCc2cccc(Cl)c2)N=C(c2ccccc2)c2ccccc21 | 157 to 159
72 | O=C(O)c1oc2ccc(Cl)cc2c1-c1ccccc1 | 247 to 248
73 | CSc1nn2c(NCCN(C)C)cc(C)nc2c1S(=O)(=O)c1ccccc1 | 190 to 191
74 | Cc1ccc2ccc(C(=O)O)nc2c1 | 160 to 162
75 | CON=C(C1=NCCO1)c1ccccc1OCc1ccc(Cl)cc1 | 97 to 100
76 | CC(C)CN(Cc1nnc(-c2ncn3c2CN(C)C(=O)c2ccccc2-3)o1)CC(C)C | 138 to 140
77 | CCOC(=O)c1ccc(OCCC2CCN(c3cc(Cl)nnc3Cl)CC2)cc1 | 153 to 155
78 | O=C1c2cccc3cccc(c23)C(=O)N1CCI | 222 to 224

Row | SMILES | melting point [°C]
79 | CNc1nc(-c2cccc(-c3cncc(S(C)=O)c3)c2)c2cc(OC)c(OC)cc2n1 (stereo unspecified) | 208 to 210
80 | COc1ccc2c(c1)c(SC(C)C)c(C(N)=O)n2C | 122 to 124
81 | CC(C)(C)OC(=O)Nc1cc(N2CCS(=O)(=O)CC2)c(C#Cc2ccccc2)cc1[N+](=O)[O-] | 217 to 221
82 | Nc1ncc(-c2ccc(=O)[nH]n2)c(-c2cccc(F)c2)n1 | 249
83 | CC(=O)Nc1ccc2nc3[nH]c(=O)[nH]c3cc2c1 | > 320
84 | CN1CC(=O)N(c2cc(Cl)nc(Cl)c2)C1=O | 134
85 | C=Cc1nc(C#N)c(C#N)n1CC | 66 to 70
86 | CCCCc1nc(Cl)c(C=O)n1Cc1ccc(-c2nnn(C(c3ccccc3)(c3ccccc3)c3ccccc3)n2)cc1 | 154 to 157
87 | CCN(c1ccccc1C)S(=O)(=O)c1cc([N+](=O)[O-])ccc1C | 78 to 80
88 | Cc1ccc(CC(=O)c2sccc2S(=O)(=O)Nc2onc(C)c2C)cc1 | 95 to 100
89 | CN(C)C=CC(=O)c1ccc(OCC(O)CN2CCN(c3ccc(Cl)cc3)CC2)cc1 (stereo unspecified) | 185
90 | COc1ccc(C(=O)N(C)C)c(-c2ccccc2)c1OC | 101 to 102
91 | COC(=O)C1=Cc2ccccc2OC1 | 56 to 57
92 | Cc1ncc2cc(-c3ccc(F)cc3)c(N)nc2n1 | 252 to 254
93 | COc1cc(Br)c(OC)c(C(N)=O)c1 | 222 to 225
94 | N#CN1CCN(c2nn(S(=O)(=O)c3ccccc3)c3cc(F)ccc23)CC1 | 178 to 180
95 | COc1ccc(C=CC(=O)Nc2ccccc2C(=O)O)cc1O | 215 to 216
96 | Cc1cc2c(-c3ccccc3)c(NC(=O)NCc3ccccc3N)n(C)c(=O)c2cc1C | 218
97 | C[C@H](CO)Nc1nc(SCc2cccc(F)c2F)nc2[nH]c(=O)cnc12 | 215 to 217
98 | O=C(CCCN1CCCC1)NC(Cc1c[nH]c2ccccc12)C(=O)CCc1cc(C(F)(F)F)cc(C(F)(F)F)c1 (stereo unspecified) | 99 to 100
99 | CC(C)c1c(CO)c(-c2ccc(F)cc2)nn1-c1ccccc1 | 144 to 147
100 | CC1=C(C(=O)OC(C)(C)C)C(c2cccc(Br)c2)C(C(=O)OC(C)(C)C)=C(C)N1 | 195 to 196
101 | COC(=O)c1ccc(NC2CCCCC2)cc1C(=O)OC | 217 to 219
